Reference: patent US12667584B2, “Adenosine analog and its use in regulating the circadian clock” (NATIONAL INSTITUTE OF BIOLOGICAL SCIENCES, BEIJING, priority 2017, dated 2026)

Key:
PER2 locus = assay: ChIP-qPCR analysis for the PER2 locus; type: cell-based
Description: Human and mouse circadian oscillators are driven by interlocked transcriptional and translational feedback loop. Bmal1 and Clock are transcriptional factors and function as positive arm to active negative arm genes transcription, including Per and Cry. Per and Cry are transcriptional repressor and feedback repress Bmal1/Clock's transcription activity thereby inhibit its own transcription. […] We also confirmed this by ChIP-qPCR experiments. Cordycepin treatment 30 min immediately release Cry1/2 and Ruvbl2 binding at Per2 gene promoter.

[1] = molecular target: T1, Ruvbl2, Bmal1, Cry1 and CDK9 interaction (Homo sapiens, UniProt Q9Y230); assay: Co-immunoprecipitation in transfected HEK293T cells; type: cell-based; conditions: 100 μM
T1 construct: expressed in transfected cells; host or cells: HEK293T
T1 sequence (Q9Y230 whole entry): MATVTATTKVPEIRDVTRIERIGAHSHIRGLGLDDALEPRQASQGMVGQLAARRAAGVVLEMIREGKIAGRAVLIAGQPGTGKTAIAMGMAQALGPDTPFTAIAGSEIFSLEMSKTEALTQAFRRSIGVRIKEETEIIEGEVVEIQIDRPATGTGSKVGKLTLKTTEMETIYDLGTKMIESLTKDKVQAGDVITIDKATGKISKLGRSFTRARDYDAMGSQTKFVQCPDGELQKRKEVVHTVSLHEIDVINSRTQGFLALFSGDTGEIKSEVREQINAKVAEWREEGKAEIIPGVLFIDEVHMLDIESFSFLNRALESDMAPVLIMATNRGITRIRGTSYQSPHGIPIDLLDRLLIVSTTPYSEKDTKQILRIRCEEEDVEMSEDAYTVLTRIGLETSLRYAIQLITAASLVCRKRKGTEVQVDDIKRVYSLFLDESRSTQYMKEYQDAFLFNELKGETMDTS
Description: (§1) Biotinylated Compounds Pull-down, SPR analysis and Immunoprecipitation: The interaction between biotinylated compounds and their target proteins were proceeded as follow. Every 10^8 unsynchronized U2OS cells were collected, homogenized into 2 ml lysis buffer (25 mM MOPS pH7.2, 15 mM EGTA, 15 mM MgCl2, 1 mM DTT, 60 mM β-glycerophosphate, 1 mM Na3VO4, 1 mM NaF, 1 mM phenyl phosphate, Complete Protease Inhibitor Cocktail), and sonicated 6 times for 30 s at 4° C. with a Diagenode bioruptor. After sonication, NP-40 (final 0.5%) was added, incubated 15 min on ice, centrifuged at full speed for 20 min at 4° C. The resultant supernatant was firstly incubated with Pentostatin (final concentration at 5 μg/ml) for 2 h at 4° C. with rotation, and then split into 4 groups. 200 pmol cordycepin, 200 pmol DRB, and DMSO (2 groups, final 0.1%) was added respectively and further incubated for 1 h. […] The eluted protein was analyzed with western blot. The binding affinity of cordycepin against the RUVBL2 protein was measured via SPR technology using a Biacore T200 instrument (GE Healthcare) at room temperature. […] The binding kinetics and binding affinity of cordycepin against the RUVBL2 protein were determined with BIA evaluation software (GE healthcare). […] Immunoprecipitated protein complex was then washed 3 times with IP lysis buffer, boiled and analyzed with western blot. […]

Ruvbl2 = Ruvbl2 (Homo sapiens, UniProt Q9Y230); assay: SPR binding to RUVBL2 protein (Biacore T200); conditions: purified RUVBL2
Chain of Ruvbl2 (Q9Y230 whole entry): as above
Description: as §1

Nc1ncnc2c1ncn2[C@@H]1O[C@H](CO)C[C@H]1O [Cordycepin, 3′-deoxy-adenosine]
binding of BMAL1 at PER2 locus (PER2 locus): remained unchanged
binding of CRY2/RUVBL2 at PER2 locus (PER2 locus): released
interaction between Ruvbl2 and Bmal1, or Cry1 with Bmal1 [1]: can be disassociated
interaction between Ruvbl2 with Cry1 or CDK9 [1]: is not disassociated
Kd (Ruvbl2): ~500 nM
